Read-outs that look alike come from different tables or passages of the source.
Assays:
[1] = test system: PC3 cells; assay: Cellular uptake, internalization and blocking assays in PC3 cells; type: cell-based, human; details: 37 °C; for Maximum cellular uptake: 5 min to 4 h
Procedure: The time-dependent accumulation of ^111In-conjugates in PC3 cells was evaluated according to a previously described procedure. Briefly, PC3 cells were incubated at 37 °C for 5 min to 4 h with about 7.4 kBq of the tested radioconjugates. To assess the surface binding, the cells were treated twice with glycine buffer (50 mM glycine-HCl/100 mM NaCl, pH 2.8). Then, the cells were lysed with NaOH 1 M (internalized radioconjugate). The activity in both cell surface-bound and internalized fractions was measured in a γ-counter and reported as a percentage of the total applied radioactivity. The total cellular uptake was calculated by the addition of the activities recovered from the surface binding and internalized fractions. Assays for each time point were performed in quadruplicate, and data were presented as average ± SD of typically three independent experiments.
To assess the specific GRPR-mediated cellular uptake and internalization of radioconjugates (receptor blocking studies), a similar study was performed in which cells were incubated with the [^111In]In-DOTA-Tz-TCO-PEG4-AR for 1, 2 and 4 h, with or without the GRPR agonist Tyr4-Bombesin (0.25 µg/0.5 mL/well).

[2] = test system: PC3 xenografts-bearing mice; assay: Biodistribution of 111In-radioconjugates/radiocomplex in PC3 xenografts-bearing mice; type: in vivo, Balb/c-male nude mice
Description: (§1) Blood samples were taken by cardiac puncture at sacrifice.

[3] = as above; type: in vivo, Balb/c-male nude mice; details: male, Balb/c nude, mouse, iv, total radioactivity, 1 h p.i.
Description: as §1

[4] = Procedure: The octanol–water partition coefficients (Po/w) of the radioconjugates (20 µL, typically 1 to 5 MBq) were determined by the “shake-flask” method, as previously described.
[5] = 1 h p.i., blocking (excess of agonist)
[6] = 15 min p.i., listed as [111In]In-DOTA-Tz
[7] = 1 h p.i., listed as [111In]In-DOTA-Tz

Which “Distribution of cell-associated activity (surface-bound vs internalized)” value [1] does the source give for CC(C)C[C@H](NC(=O)C[C@H](O)[C@H](CC(C)C)NC(=O)[C@H](Cc1c[nH]cn1)NC(=O)CNC(=O)[C@@H](NC(=O)[C@H](C)NC(=O)[C@H](Cc1c[nH]c2ccccc12)NC(=O)[C@H](CCC(N)=O)NC(=O)[C@@H](Cc1ccccc1)NC(=O)CN1CCC(NC(=O)OC2CCCc3c(cnnc3-c3ccc(CNC(=O)CN4CCN(CC(=O)O)CCN(CC(=O)O)CCN(CC(=O)O)CC4)cc3)CC2)CC1)C(C)C)C(N)=O (stereo partly drawn) [[^111In]In-DOTA-Tz-TCO-Pip-AR, metal not drawn] here?
The value was “almost all cell-associated activity corresponded to the membrane-bound fraction”.

What about the Maximum cellular uptake [1] of the same compound?
Its Maximum cellular uptake is “around 10 % of the total activity applied per million cells”.

And the Blood uptake ([2]; 1 h p.i.)?
The Blood uptake was 2. 63 % I.D./g.

What about the Bone uptake ([2]; 1 h p.i.) of the same compound?
The Bone uptake was 1. 2 % I.D./g.

What about the Excretion ([2]; 1 h p.i.) of the same compound?
Its Excretion is 63. % I.D.

What about the Heart uptake ([2]; 1 h p.i.) of the same compound?
The Heart uptake was 1. 06 % I.D./g.

What about the Intestine uptake ([2]; 1 h p.i.) of the same compound?
The Intestine uptake was 0. 54 % I.D./g.

And the Kidneys uptake ([2]; 1 h p.i.)?
Its Kidneys uptake is 9. 04 % I.D./g.

And the Liver uptake ([2]; 1 h p.i.)?
The Liver uptake was 3. 97 % I.D./g.

What about the Lungs uptake ([2]; 1 h p.i.) of the same compound?
Its Lungs uptake is 1. 74 % I.D./g.

And the Muscle uptake ([2]; 1 h p.i.)?
The Muscle uptake was 0. 64 % I.D./g.

What about the Pancreas uptake ([2]; 1 h p.i.) of the same compound?
Its Pancreas uptake is 3. 24 % I.D./g.

What about the Spleen uptake ([2]; 1 h p.i.) of the same compound?
Its Spleen uptake is 0. 98 % I.D./g.

And the Stomach uptake ([2]; 1 h p.i.)?
Its Stomach uptake is 0. 48 % I.D./g.

And the Tumor uptake ([2]; 1 h p.i.)?
The Tumor uptake was 2. 79 % I.D./g.

And the Blood uptake [2, 5]?
Its Blood uptake is 3. 11 % I.D./g.

And the Bone uptake [2, 5]?
Its Bone uptake is 0. 97 % I.D./g.

And the Excretion [2, 5]?
The Excretion was 60. % I.D.

And the Heart uptake [2, 5]?
Its Heart uptake is 0. 6 % I.D./g.

And the Intestine uptake [2, 5]?
The Intestine uptake was 0. 4 % I.D./g.

And the Kidneys uptake [2, 5]?
The Kidneys uptake was 7. 18 % I.D./g.

And the Liver uptake [2, 5]?
The Liver uptake was 3. 28 % I.D./g.

What about the Lungs uptake [2, 5] of the same compound?
The Lungs uptake was 1. 44 % I.D./g.

And the Muscle uptake [2, 5]?
The Muscle uptake was 0. 63 % I.D./g.

And the Pancreas uptake [2, 5]?
Its Pancreas uptake is 1. 67 % I.D./g.

What about the Spleen uptake [2, 5] of the same compound?
Its Spleen uptake is 0. 74 % I.D./g.

What about the Stomach uptake [2, 5] of the same compound?
Its Stomach uptake is 0. 34 % I.D./g.

And the Tumor uptake [2, 5]?
Its Tumor uptake is 1. 38 % I.D./g.

What about the Blood uptake ([2]; 2 h p.i.) of the same compound?
Its Blood uptake is 0. 16 % I.D./g.

And the Bone uptake ([2]; 2 h p.i.)?
Its Bone uptake is 0. 13 % I.D./g.

What about the Excretion ([2]; 2 h p.i.) of the same compound?
Its Excretion is 91. % I.D.

And the Heart uptake ([2]; 2 h p.i.)?
Its Heart uptake is 0. 08 % I.D./g.

What about the Intestine uptake ([2]; 2 h p.i.) of the same compound?
The Intestine uptake was 0. 09 % I.D./g.

And the Kidneys uptake ([2]; 2 h p.i.)?
The Kidneys uptake was 3. 09 % I.D./g.

What about the Liver uptake ([2]; 2 h p.i.) of the same compound?
The Liver uptake was 1. 02 % I.D./g.

What about the Lungs uptake ([2]; 2 h p.i.) of the same compound?
The Lungs uptake was 0. 18 % I.D./g.

And the Muscle uptake ([2]; 2 h p.i.)?
The Muscle uptake was 0. 05 % I.D./g.

And the Pancreas uptake ([2]; 2 h p.i.)?
The Pancreas uptake was 0. 28 % I.D./g.

And the Spleen uptake ([2]; 2 h p.i.)?
The Spleen uptake was 0. 28 % I.D./g.

And the Stomach uptake ([2]; 2 h p.i.)?
The Stomach uptake was 0. 05 % I.D./g.

And the Tumor uptake ([2]; 2 h p.i.)?
The Tumor uptake was 1. 13 % I.D./g.

What about the tissue uptake at 1 h ([3]; pancreas, read-out: Pancreas uptake) of the same compound?
The tissue uptake at 1 h was 2.8 ± 0.5 %ID/g.

What about the tissue uptake at 1 h ([3]; tumor (PC3 xenograft), read-out: Tumor uptake) of the same compound?
The tissue uptake at 1 h was 3.2 ± 0.1 %ID/g.

And the logP [4]?
Its logP is -1.28 ± 0.01.

Which “Distribution of cell-associated activity (surface-bound vs internalized)” value [1] does the source give for CC(C)C[C@H](NC(=O)C[C@H](O)[C@H](CC(C)C)NC(=O)[C@H](Cc1c[nH]cn1)NC(=O)CNC(=O)[C@@H](NC(=O)[C@H](C)NC(=O)[C@H](Cc1c[nH]c2ccccc12)NC(=O)[C@H](CCC(N)=O)NC(=O)[C@@H](Cc1ccccc1)NC(=O)CN1CCC(NC(=O)OC2CCCc3c(cnnc3-c3ccc(CNC(=O)CCC(C(=O)O)N4CCN(CC(=O)O)CCN(CC(=O)O)CCN(CC(=O)O)CC4)cc3)CC2)CC1)C(C)C)C(N)=O (stereo partly drawn) [[^111In]In-DOTAGA-Tz-TCO-Pip-AR, metal not drawn] here?
The value was “almost all cell-associated activity corresponded to the membrane-bound fraction”.

And the Maximum cellular uptake [1]?
The Maximum cellular uptake was “around 10 % of the total activity applied per million cells”.

And the logP [4]?
Its logP is -0.9.

Which results are given for O=C([O-])CN1CCN(CC(=O)[O-])CCN(CC(=O)NCc2ccc(-c3nncnn3)cc2)CCN(CC(=O)[O-])CC1.[111In+3] [[^111In]In-DOTA-Tz]?
Blood uptake ([2]; 15 min p.i.): 2. 7 % I.D./g; Bone uptake ([2]; 15 min p.i.): 0. 8 % I.D./g; Excretion ([2]; 15 min p.i.): 61. % I.D.; Heart uptake ([2]; 15 min p.i.): 0. 9 % I.D./g; Intestine uptake ([2]; 15 min p.i.): 0. 4 % I.D./g; Kidneys uptake ([2]; 15 min p.i.): 4. 4 % I.D./g; Liver uptake ([2]; 15 min p.i.): 0. 9 % I.D./g; Lungs uptake ([2]; 15 min p.i.): 1. 4 % I.D./g; Muscle uptake ([2]; 15 min p.i.): 0. 8 % I.D./g; Pancreas uptake ([2]; 15 min p.i.): 0.42 ± 0.02 % I.D./g; Spleen uptake ([2]; 15 min p.i.): 0. 45 % I.D./g; Stomach uptake ([2]; 15 min p.i.): 0. 4 % I.D./g; Tumor uptake ([2]; 15 min p.i.): 2.46 ± 0.6 % I.D./g; Pancreas uptake [2, 6]: 0. 42 % I.D./g; Tumor uptake [2, 6]: 2. 46 % I.D./g; Blood uptake ([2]; 1 h p.i.): 0. 4 % I.D./g; Bone uptake ([2]; 1 h p.i.): 0. 2 % I.D./g; Excretion ([2]; 1 h p.i.): 88 % I.D.; Heart uptake ([2]; 1 h p.i.): 0. 17 % I.D./g; Intestine uptake ([2]; 1 h p.i.): 0. 29 % I.D./g; Kidneys uptake ([2]; 1 h p.i.): 2. 1 % I.D./g; Liver uptake ([2]; 1 h p.i.): 0. 4 % I.D./g; Lungs uptake ([2]; 1 h p.i.): 0. 38 % I.D./g; Muscle uptake ([2]; 1 h p.i.): 0. 1 % I.D./g; Pancreas uptake ([2]; 1 h p.i.): 0.09 ± 0.06 % I.D./g; Spleen uptake ([2]; 1 h p.i.): 0. 14 % I.D./g; Stomach uptake ([2]; 1 h p.i.): 0. 17 % I.D./g; Tumor uptake ([2]; 1 h p.i.): 0.5 ± 0.2 % I.D./g; Pancreas uptake [2, 7]: 0. 09 % I.D./g; Tumor uptake [2, 7]: 0. 5 % I.D./g; Blood uptake ([2]; 24 h p.i.): 0. 03 % I.D./g; Bone uptake ([2]; 24 h p.i.): 0. 04 % I.D./g; Excretion ([2]; 24 h p.i.): 97. % I.D.; Heart uptake ([2]; 24 h p.i.): 0. 02 % I.D./g; Intestine uptake ([2]; 24 h p.i.): 0. 09 % I.D./g; Kidneys uptake ([2]; 24 h p.i.): 0. 87 % I.D./g; Liver uptake ([2]; 24 h p.i.): 0. 12 % I.D./g; Lungs uptake ([2]; 24 h p.i.): 0. 07 % I.D./g; Muscle uptake ([2]; 24 h p.i.): 0. 021 % I.D./g; Pancreas uptake ([2]; 24 h p.i.): 0. 03 % I.D./g; Spleen uptake ([2]; 24 h p.i.): 0. 08 % I.D./g; Stomach uptake ([2]; 24 h p.i.): 0. 03 % I.D./g; Tumor uptake ([2]; 24 h p.i.): 0. 13 % I.D./g
